Assay results published in PMC6272684, “Synthesis, Antiproliferative and Antifungal Activities of 1,2,3-Triazole-Substituted Carnosic Acid and Carnosol Derivatives” (Molecules, 2015).
Read-outs that look alike come from different tables or passages of the source.

Key:
[1] = test system: gastric epithelial adenocarcinoma (AGS) cells; assay: Antiproliferative assay (MTT reduction, 3 days); format: cell-based, human; settings: >100 µM considered inactive, read-out: IC50 ± SD, AGS
Protocol: (§1) The antiproliferative activity towards the following human cell lines was determined: normal lung fibroblasts (MRC-5), gastric epithelial adenocarcinoma (AGS), lung cancer (SK-MES-1) and bladder carcinoma (J82) cells. […] When comparing the pairs 3–4, 5–6 and 7–8 differing in one CH2 unit in the linker, the activity decreased with linker length.
(§2) All human cell lines used in this work were purchased from the American Type Culture Collection (ATCC, Manasas, VA, USA). Normal lung MRC-5 fibroblasts (CCL-171), SK-MES-1 lung cancer cells (HTB-58) and J82 bladder carcinoma cells (HTB-1) were grown as monolayers in minimum essential Eagle medium (MEM) with Earles’s salts, 2 mM L-glutamine and 1.5 g∙L^−1 sodium bicarbonate. Gastric adenocarcinoma AGS cells (CRL-1739) were grown as monolayers in Ham F-12 medium containing 1 mM L-glutamine and 1.5 g∙L^−1 sodium bicarbonate. All media were supplemented with 10% heat-inactivated FBS, 100 IU∙mL^−1 penicillin and 100 µg∙mL^−1 streptomycin. Cells were grown in a humidified incubator with 5% CO2 in air at 37 °C. For the antiproliferative assay, cells were plated at a density of 5 × 10^4 cells∙mL^−1. Cells were seeded in 96-well plates (100 µL∙well^−1). One day after seeding, cells were treated with medium containing the compounds at concentrations ranging from 0 up to 100 µM during 3 days. The compounds were dissolved in DMSO (1% final concentration) and complete medium. Untreated cells (medium containing 1% DMSO) were used as 100% viability controls. […] Each concentration was tested in sextuplicate and experiments were repeated 2 times. Cell viability was determined by means of the MTT reduction assay at the end of the incubation with the products. The results were transformed to percentage of controls and the IC50 value was obtained adjusting the dose-response curve to a sigmoidal model. The software used was OriginPro 8.1 [30].

[2] = test system: C. albicans ATCC 10231; assay: Antifungal broth microdilution (CLSI M27-A3), growth inhibition; format: cell-based, Candida albicans; settings: for MIC50 (minimum concentration to inhibit 50% of fungal growth), C. albicans: C. albicans ATCC 10231
Outline: (§3)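 Yeast inocula (1–5 × 10^3 CFU/mL) were tested by CLSI M27-A3 broth microdilution in RPMI-1640 at 250–3.9 μg∙mL^−1 (DMSO ≤1%) for 48 h at 30 °C in the dark. Growth was read at OD405, and % inhibition was calculated against growth and sterility controls in triplicate. MIC100 is total inhibition; MIC50 is 50% inhibition.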

[3] = test system: C. neoformans ATCC 32264; assay: as above; format: cell-based, Cryptococcus neoformans; settings: for MIC50 (minimum concentration to inhibit 50% of fungal growth), C. neoformans: C. neoformans ATCC 32264
Outline: as §3

[4] = test system: bladder carcinoma (J82) cells; assay: Antiproliferative assay (MTT reduction, 3 days); format: cell-based, human; settings: Homo sapiens, J82, 72 h, read-out: IC50 ± SD, J82
Protocol: as §1, §2

IC50 [1]	MIC50 (minimum concentration to inhibit 50% of fungal growth), C. albicans [2]	MIC50 (minimum concentration to inhibit 50% of fungal growth), C. neoformans [3]	SMILES	Inhibition percentage against C. albicans ATCC 10231 ([2]; 3.9 μg∙mL^−1, 48 h)	Inhibition percentage against C. albicans ATCC 10231 ([2]; 7.8 μg∙mL^−1, 48 h)	Inhibition percentage against C. albicans ATCC 10231 ([2]; 15.6 μg∙mL^−1, 48 h)	Inhibition percentage against C. albicans ATCC 10231 ([2]; 62.5 μg∙mL^−1, 48 h)	Inhibition percentage against C. albicans ATCC 10231 ([2]; 125 μg∙mL^−1, 48 h)	Inhibition percentage against C. albicans ATCC 10231 ([2]; 250 μg∙mL^−1, 48 h)	Inhibition percentage against C. albicans ATCC 10231 ([2]; 31. μg∙mL^−1, 48 h)	Inhibition percentage against C. neoformans ATCC 32264 ([3]; 3.9 μg∙mL^−1, 48 h)	Inhibition percentage against C. neoformans ATCC 32264 ([3]; 7.8 μg∙mL^−1, 48 h)	Inhibition percentage against C. neoformans ATCC 32264 ([3]; 15.6 μg∙mL^−1, 48 h)	Inhibition percentage against C. neoformans ATCC 32264 ([3]; 31.2 μg∙mL^−1, 48 h)	Inhibition percentage against C. neoformans ATCC 32264 ([3]; 62.5 μg∙mL^−1, 48 h)	Inhibition percentage against C. neoformans ATCC 32264 ([3]; 125 μg∙mL^−1, 48 h)	IC50 [4]	IC50 ([1]; Homo sapiens, 72 h)	Antifungal activity against C. albicans (in words) ([2]; at the assayed concentrations (250–3.9 μg∙mL^−1))	Inhibition percentage against C. neoformans ATCC 32264 ([3]; 250 μg∙mL^−1, 48 h)
99.4 µM	>250 µg/mL	250 µg/mL	CC(C)c1cc2c(c(OC(=O)CCc3cn(Cc4ccc([N+](=O)[O-])cc4)nn3)c1OC(=O)CCc1cn(Cc3ccc([N+](=O)[O-])cc3)nn1)C13CCCC(C)(C)C1CC2OC3=O (stereo not drawn) [Compound 23, (7β)-11,12-O-(3-(1-(4-nitrobenzyl)-1H-1,2,3-triazol-4-yl)-propanoyloxy)-7,20-epoxyabieta-8,11,13-trien-20-one]	0.0%	1.6 ± 0.8%	3.3 ± 0.6%	6.7 ± 1.6%	17.6 ± 1.4%	25.5 ± 2.5%	6.0 ± 0.5%	6.0 ± 0.1%	11.5 ± 1.5%	16.2 ± 0.2%	18.1 ± 0.4%	32.6 ± 0.8%	37.7 ± 0.7%				
			COc1cc([C@@H]2c3cc4c(cc3[C@@H](O[C@@H]3O[C@@H]5CO[C@@H](C)O[C@H]5[C@H](O)[C@H]3O)[C@H]3COC(=O)[C@H]23)OCO4)cc(OC)c1O [Etoposide, reference compound]														3.49 ± 0.16 µM	0.58 ± 0.02 µM		
89.4 µM	>250 µg/mL	250 µg/mL	COC(=O)C12CCCC(C)(C)C1CCc1cc(C(C)C)c(OC(=O)CCc3cn(Cc4ccccc4)nn3)c(OC(=O)CCc3cn(Cc4ccccc4)nn3)c12 (stereo not drawn) [Compound 11, Methyl(11,12-O-(3-(1-benzyl-1H-1,2,3-triazol-4-yl)-propanoyloxy)-abieta-8,11,13-triene)-20-oate]	1.8 ± 0.1%	1.9 ± 0.5%	3.5 ± 0.7%	11.8 ± 0.3%	23.3 ± 2.1%	45.7 ± 3.0%	5.5 ± 1.7%	0.0%	2.7 ± 0.9%	13.3 ± 2.0%	14.2 ± 1.3%	19.4 ± 2.1%	38.3 ± 2.9%			weak effect	57.2 ± 2.4%
